Measurements published in patent US12668568B2, “Adamantanyl-substituted benzamide compounds and their use as P2X7 receptor antagonists” (The University of Sydney, priority 2018, dated 2026).

How the values were obtained:
P-gp (human MDR1) = test: MDCK P-glycoprotein bidirectional permeability assay; type: in vitro ADME, canine; conditions: dog, 30 minute, 37° C.; for Papp A→B at 30 min, 10 μM: apical to basolateral; for Papp B→A at 30 min, 10 μM: basolateral to apical
Protocol: The transcellular permeability of test compounds and the influence of Pgp-mediated efflux on drug permeability was assessed using hMDR1-MDCK monolayers grown on filter supports. All compounds were dissolved in 100% DMSO to provide 10 mM stock solutions from which donor (dose) solutions were prepared in DMEM to give a final drug concentration of 10 μM. All dose solutions contained 10 μM propranolol as an internal standard. hMDR1-MDCK seeded filters were exposed to a fixed volume of the donor solution containing the compound of interest and its ability to traverse the monolayer and appear in the receiver compartment measured over a 30 minute period at 37° C. Bidirectional permeability measurements were derived by examining the transfer of compound in both the apical to basolateral compartment, and vice versa. Sample analysis was conducted using LC-MS/MS with the detection settings optimised for each test compound. Following analysis of the samples the apparent permeability coefficient (Papp, cm/sec) for the discovery compounds is determined using the following relationship: [formula] • VR=Volume of the receiver compartment • A=Surface area of the filter • CD=Drug concentration in the donor concentration • Δt=incubation time • ΔCR=the amount of drug detected in the receiver compartment The efflux ratio can be determined from these values by calculating the ratio of the Papp values derived in the B-A direction and A-B direction (i.e. Papp B-A/Papp A-B). […] P-gp) influencing transport.

hP2X7R = molecular target: T1, hP2X7R (Homo sapiens, UniProt Q99572); test: Yo-Pro uptake assay for P2X7R pore formation in THP-1 cells; type: cell-based; design: Following an overnight incubation (16 h) required for THP-1 differentiation; endogenous in cells; host or cells: THP-1 (ATCC), differentiated with LPS and IFN-gamma; conditions: for IC50: THP-1 cells, BzATP 100 μM, YO-PRO-1, mean ± standard deviation, n >4, read-out: Dye uptake IC50 hP2X7R; for LLE: pIC50 from dye uptake and LogD from HPLC
T1 sequence (Q99572 1-595): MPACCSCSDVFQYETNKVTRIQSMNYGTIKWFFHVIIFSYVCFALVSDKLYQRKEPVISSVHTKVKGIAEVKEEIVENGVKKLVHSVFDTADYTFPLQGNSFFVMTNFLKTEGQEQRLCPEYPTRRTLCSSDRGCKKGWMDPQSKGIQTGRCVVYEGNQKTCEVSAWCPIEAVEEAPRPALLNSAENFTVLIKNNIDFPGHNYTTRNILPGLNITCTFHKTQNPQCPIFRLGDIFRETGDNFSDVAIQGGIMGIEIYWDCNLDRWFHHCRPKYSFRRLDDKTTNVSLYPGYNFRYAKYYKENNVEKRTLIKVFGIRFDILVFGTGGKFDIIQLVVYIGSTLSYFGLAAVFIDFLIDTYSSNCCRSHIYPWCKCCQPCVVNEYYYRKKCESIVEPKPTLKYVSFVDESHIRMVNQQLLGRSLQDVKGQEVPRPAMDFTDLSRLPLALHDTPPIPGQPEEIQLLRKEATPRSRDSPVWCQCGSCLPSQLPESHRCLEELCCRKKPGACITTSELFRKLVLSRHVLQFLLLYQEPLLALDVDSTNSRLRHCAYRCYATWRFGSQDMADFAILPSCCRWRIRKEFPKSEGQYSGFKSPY
Protocol: HEK293T cells transfected with cDNA for the human (HEK-hP2X7) or mouse P2X7 (HEK-mP2X7) receptor (a kind gift from Dr Leanne Stokes and Prof. Jim Wiley) were cultured in DMEM/F12 with 10% FBS and 500 μg/mL G418 (all from Invitrogen). Cells were cultured in 75 cm^2 flasks and incubated at 37° C. in a 5% CO2 humidified atmosphere, maintained in log phase of growth and passaged when cell density reached 1×10^6 cells/mL (every 2-3 days).^3
P2X7R pore formation was assessed by agonist-induced uptake of the Yo-Pro-1 iodide dye. […] Final treatments (in triplicate) were made up in phosphate buffered saline (PBS), without divalent cations, containing PRO®-1 dye (2 μM). Cells were washed once in pre-warmed PBS and treatments were added to cells, with or without 2′(3′)-O-(4-benzoylbenzoyl)adenosine 5′-triphosphate (BzATP, 100 μM) as agonist. Dye uptake was measured at 37° C. using a fluorescence plate reader (BMG Labtech); with data read at λEx485nm/λEm520nm at 30 sec intervals over a 70 min period. […] IC50 values were determined from concentration-response curves derived from a four-parameter variable slope, analyzed in GraphPad Prism® (San Diego, CA).

CYP2C9 = molecular target: T2, CYP2C9 (Homo sapiens, UniProt P11712); test: Cytochrome profiling CYP2C9 (baculosomes); type: in vitro ADME; conditions: probe fluorogenic probe substrate (not named), 10 μM substrate
T2 construct: host or cells: insect cells infected with recombinant baculovirus (microsomes)
T2 sequence (P11712 whole entry): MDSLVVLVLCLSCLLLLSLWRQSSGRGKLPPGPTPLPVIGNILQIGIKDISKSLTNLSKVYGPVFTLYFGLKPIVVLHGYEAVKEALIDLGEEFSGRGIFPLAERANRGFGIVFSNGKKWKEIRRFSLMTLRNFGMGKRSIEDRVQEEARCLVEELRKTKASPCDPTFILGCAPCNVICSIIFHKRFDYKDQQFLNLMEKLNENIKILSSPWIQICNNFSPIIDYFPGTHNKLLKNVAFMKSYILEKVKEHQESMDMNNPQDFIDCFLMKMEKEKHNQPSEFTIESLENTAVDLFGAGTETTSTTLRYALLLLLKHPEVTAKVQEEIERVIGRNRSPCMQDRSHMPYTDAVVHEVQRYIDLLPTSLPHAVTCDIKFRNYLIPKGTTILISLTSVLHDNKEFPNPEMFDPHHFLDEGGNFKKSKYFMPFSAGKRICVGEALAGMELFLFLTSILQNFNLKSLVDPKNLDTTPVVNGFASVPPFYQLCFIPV
Text: Cytochrome P450 (abbreviated CYP, P450 or CYP450) belong to very large and diverse superfamily of haemoproteins which accept both exogenous and endogenous compounds as substrates in enzymatic reactions and play a major role in drug metabolism. Although this class has more than 50 enzymes just 5 of them (CYP1A2, CYP2C9, CYP2C19, CYP2D6 and CYP3A4) are able to metabolise almost 90% of all drugs. Inhibition of these enzymes is one of the major reasons for drug-drug interactions. Consequently, detailed CYP inhibition profiles are a regulatory requirement for all new drugs. Inhibition potencies against the five most relevant CYP isoforms is performed using baculosomes; microsomes prepared from insect cells infected with recombinant baculovirus containing cDNA for a specific human P450 isozyme. The baculosomes are incubated with drug at a concentration of 1 μM in the presence of a probe substrate for 60 minutes at 37° C. The probe is normally metabolised by the baculosomes to produce a fluorescent metabolite. A substrate drug will compete for the isozyme and reduce the metabolism of the probe resulting in a decrease in the fluorescent signal. The percent inhibition due to the presence of the test compound is calculated using the following equation: [formula] • X=fluorescent intensity observed in the presence of test compound • A=fluorescent intensity observed in control • B=fluorescent intensity observed in the presence of the probe control

[1] = Brain tissue binding, rapid equilibrium dialysis; type: in vitro ADME; conditions: rat brain tissue, 4 hours 37° C., read-out: pb (% bound) Brain (converted)
Protocol: Determining the extent to which a molecule binds to factors present within plasma and brain is a critical phase of drug development as this determines not only the free unbound fraction available to exert the desired pharmacological actions but also influences dosing, clearance rate and the potential for drug-drug interactions. Binding is measured with the rapid equilibrium dialysis technique using cartridges consisting of two compartments (sample and buffer chamber) separated by a dialysis membrane.
All compounds are prepared in 100% DMSO to provide 10 mM stock solutions. Sample material is prepared by spiking a known volume of plasma or brain with the stock solution such that the final concentration of compound is 1 μM. This is placed in the sample chamber of the dialysis cartridge. Dialysis buffer is then added to the buffer chamber and the cartridge incubated at 37° C. for 4 hours. Following the incubation the test compound concentrations are determined in the two chambers and the % free or bound component calculated using the equation below:
[formula] [formula] In Vivo Pharmacokinetic Studies

SMILES	Papp A→B at 30 min, 10 μM (P-gp (human MDR1)) [×10⁻⁶ cm/s]	Papp B→A at 30 min, 10 μM (P-gp (human MDR1)) [×10⁻⁶ cm/s]	IC50 (hP2X7R) [nM]	LLE (hP2X7R)	inhibition at 60 min, 1 μM (CYP2C9) [%]	fraction unbound at 4 h, 1 μM [1]
COc1ccc(Cl)c(C(=O)NCC23CC4CC(CC(F)(C4)C2)C3)c1 [Compound 3, 2-Chloro-N-((3-fluoroadamantan-1-yl)methyl)-5-methoxybenzamide]	28.1	34.3	25.1 ± 2.7	4.33	32.3	0.0309
COc1ccc(Cl)c(C(=O)NCC23CC4CC(CC(C4)C2)C3)c1 [Compound 31, reference compound]	40.9	23.6	10.5 ± 3.1	3.75	75	0.0027
COc1ccc(Cl)c(C(=O)NCC23CC4(F)CC(F)(CC(F)(C4)C2)C3)c1 [Compound 1, 2-Chloro-N-((3,5,7-trifluoroadamantan-1-yl)methyl)-5-methoxybenzamide]	30.3	44.2			9.26	0.0549
COc1ccc(Cl)c(C(=O)NCC23CC4CC(F)(CC(F)(C4)C2)C3)c1 [Compound 2, 2-Chloro-N-((3,5-difluoroadamantan-1-yl)methyl)-5-methoxybenzamide]	40	54.8	30.9 ± 8	4.66	-3	0.085
